Experimental data reported in patent EP0407586A1, “HUMAN MONOCLONAL ANTIBODY AND PROCESS FOR ITS PREPARATION” (TEIJIN LIMITED, priority 1988, dated 1990).
pIC50: −log10 of the molar value.

These compounds were tested on reaction of the MCA produced by hybridoma 11-50 with human colon cancer cell line SW480 (assay: Inhibition of the reaction of the MCA with immobilized SW480 cells (ELISA)). Conditions: SW480, result in words.
Assay type: binding
Procedure: It was determined by the ELISA. As an antigen, 10 µg/ml asialofetuin (SIGMA) solution in 0.1 M borate buffer (pH 8.6) whose 100 ul was immobilized to each well of the Falcon microtest III plate (96 wells) was used. The supernatant of the hybridoma culture mixture was added to the plate with 50 µl every well and allowed to stand at room temperature for 1 hour. The wells were washed with 1 % bovine serum albumin (abbreviated to BSA hereinafter)-containing Hanks' buffer salt solution (abbreviated to HBSS-B) 3 times, then 100 µl of 0.6 mg/ml p-nitrophenyl phosphate solution in 1 M diethanolamine + 1 mM MgCl2 (pH 9.8) were added. After 30 to 60 minutes, the absorbance at 405 nm wavelength was measured to select the hybridomas with antibody activity.
Fifty microliters of 30-fold diluted culture supernatant of hybridoma 11-50 with HBSS-B and fifty microliters of a variety of protein solutions diluted stepwise with HBSS-B (described in Table 3) were mixed beforehand, then 50 µl of the mixture was added to a -96-well plate to which human colon cancer cell line SW480 had been immobilized with glutaraldehyde, then allowed to stand at room temperature for 1 hour. The following procedures were done according to the method described in Example 1-(3).
Inhibitory activity in % = [1 - (A405 in the presence of an inhibitor)/(A405-in the absence of an inhibitor)]
Various kinds of oligosaccharides (listed in Table 4) were diluted stepwise with HBSS-B and the solutions were used to conduct the evaluation according to the method ,described in Example 4-(1).

| Structure (SMILES) | inhibitory action of oligosaccharides |
| --- | --- |
| CC(=O)N[C@H]1[C@H](O[C@H]2[C@@H](O)[C@@H](CO)O[C@@H](O[C@H]3[C@H](O)[C@@H](O)C(O)O[C@@H]3CO)[C@@H]2O)O[C@H](CO)[C@@H](O)[C@@H]1O[C@@H]1O[C@H](CO)[C@H](O)[C@H](O)[C@H]1O (stereo partly drawn) [Lacto-N-tetraose, Galβ1→3GlcNAcβ1→3Galβ1→4Glc] | strongest inhibition |

Same assay, conditions: SW480; read-out: IC50 (concentration of oligosaccharides inhibiting the bonding of MCA to the cancer cells by 50%)

| Structure (SMILES) | pIC50 |
| --- | --- |
| O=C[C@H](O)[C@@H](O)[C@H](O[C@@H]1O[C@H](CO)[C@@H](O)[C@H](O)[C@H]1O)[C@H](O)CO [Cellobiose, Galβ1→4Glc] | < 1.30 |
| CO[C@@H]1O[C@H](CO)[C@@H](O[C@@H]2O[C@H](CO)[C@H](O)[C@H](O)[C@H]2O)[C@H](O)[C@H]1NC(C)=O [Galβ1→4GlcNAcβ1-OMe] | < 2.30 |
| OC[C@H]1O[C@@H](O[C@H]2[C@H](O)[C@@H](O)C(O)O[C@@H]2CO)[C@H](O)[C@@H](O)[C@H]1O (stereo partly drawn) [Lactose, Galβ1→4Glc] | 1.68 |

Now those with a higher pIC50, led by results:

| pIC50 | Structure (SMILES) |
| --- | --- |
| 2.55 | CO[C@H]1O[C@H](CO)[C@H](O)[C@H](O[C@@H]2O[C@H](CO)[C@H](O)[C@H](O)[C@H]2O)[C@H]1NC(C)=O [Galβ1→3GalNAcα1-OMe] |
| 3.17 | CC(=O)N[C@H]1[C@H](O[C@H]2[C@@H](O)[C@@H](CO)O[C@@H](O[C@H]3[C@H](O)[C@@H](O)C(O)O[C@@H]3CO)[C@@H]2O)O[C@H](CO)[C@@H](O)[C@@H]1O[C@@H]1O[C@H](CO)[C@H](O)[C@H](O)[C@H]1O (stereo partly drawn) [Lacto-N-tetraose, Galβ1→3GlcNAcβ1→3Galβ1→4Glc] |
